From US20230339851A1, “CXCR6 SULFONAMIDE COMPOUNDS” (CHEMOCENTRYX, INC., priority 2022, published 2023)

Target: T1, human CXCR6 (Homo sapiens, UniProt O00574)
T1 construct: expressed in transfected cells
Test: Radioligand Binding Assay (125I-CXCL16 displacement)
Settings: L1.2 cells stably transfected with human CXCR6 cDNA, 0.1 nM 125I-CXCL16, 4° C., three-hour incubation; read-out: Potency (IC50)
Experimental: L1.2 cells stably transfected with human CXCR6 cDNA ([…]) were incubated at 4° C. in HBSS containing 0.1 % BSA and 0.1 nM of ^125I-CXCL16 plus various concentrations of Compound. Following a three-hour incubation period, cells were aspirated onto polyethyleneimine-treated GF/B glass fiber filters (PerkinElmer, Waltham, MA) with a cell harvester (Tomtec, Hamden, CT) and washed twice with washing buffer (25 mM Hepes, 500 mM NaCl, 1 mM CaCI2, 5 mM MgCI2, pH 7.1). Fifty µl of MicroScint-20 (PerkinElmer, Waltham, MA) was added to each well of the filters, and radioactive emissions (cpm) were measured on a Packard TopCount Scintillation counter (PerkinElmer, Waltham, MA). IC50 values were calculated with GraphPad Prism using 3 parameter nonlinear regression. […]

T1 sequence (O00574 whole entry): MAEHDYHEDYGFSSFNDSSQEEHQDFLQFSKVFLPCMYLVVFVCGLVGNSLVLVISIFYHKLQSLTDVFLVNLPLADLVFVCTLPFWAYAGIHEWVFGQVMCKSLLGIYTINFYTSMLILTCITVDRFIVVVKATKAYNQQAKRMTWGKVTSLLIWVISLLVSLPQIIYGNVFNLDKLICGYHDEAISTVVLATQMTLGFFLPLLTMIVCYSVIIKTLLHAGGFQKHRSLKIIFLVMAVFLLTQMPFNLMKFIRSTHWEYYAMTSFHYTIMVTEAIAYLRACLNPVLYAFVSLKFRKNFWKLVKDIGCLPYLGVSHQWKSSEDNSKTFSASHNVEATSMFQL

Row | IC50 | Structure (SMILES)
1 | 200 to 750 nM | COc1cc(NC(=O)c2ccnn2C)ccc1S(=O)(=O)Nc1cccc(C(C)(C)C)c1 [Example 1.231]
2 | ≤ 200 nM | CCOc1cc(NC(=O)c2ccccc2)ccc1S(=O)(=O)Nc1cccc(OC(F)(F)F)c1 [Example 1.073]
3 | ≤ 200 nM | CCc1cc(NC(=O)c2ccnn2C)ccc1S(=O)(=O)Nc1cccc(C(F)(F)F)c1 [Example 1.232]
4 | 200 to 750 nM | CCOc1cc(NC(=O)C(C)C(O)C2CC3C=CC2C3)ccc1S(=O)(=O)Nc1cccc(OC(F)(F)F)c1 (centres unmarked) [Example 1.517]
5 | 2000 to 20000 nM | COc1cc(NC(=O)[C@@H]2CCC[C@H]2N)ccc1S(=O)(=O)Nc1cccc(C(F)(F)F)c1 [Example 1.392]
6 | 750 to 2000 nM | COc1cc(NC(=O)C2CCCC2)ccc1S(=O)(=O)Nc1cccc(C(F)(F)F)c1 [Example 1.497]
7 | 750 to 2000 nM | Cc1cc(NC(=O)C2CCCCC2C)ccc1S(=O)(=O)Nc1cccc(C(F)(F)F)c1 (centres unmarked) [Example 1.538]
8 | ≤ 200 nM | CCOc1cc(NC(=O)[C@@H](O)C(C)C)ccc1S(=O)(=O)Nc1ccc(OC)c(C(F)(F)F)c1 [Example 1.021]
9 | ≤ 200 nM | CCOc1cc(NC(=O)C(O)C2C=CCCC2)ccc1S(=O)(=O)Nc1cccc(OC(F)(F)F)c1 (centres unmarked) [Example 1.246]
10 | 200 to 750 nM | COc1cc(NC(=O)c2ccnn2C)ccc1S(=O)(=O)Nc1ccc(Cl)cc1 [Example 1.114]
11 | 2000 to 20000 nM | COc1c(S(=O)(=O)Nc2cccc(OC(F)(F)F)c2)ccc(NC(=O)c2ccnn2C)c1C [Example 1.203]
12 | 750 to 2000 nM | COc1cc(NC(=O)c2ccnn2C)ccc1S(=O)(=O)Nc1ccc(C#N)c(OC(F)(F)F)c1 [Example 1.015]
13 | 200 to 750 nM | CCOc1cc(NC(=O)C2CCC[C@@H]2O)ccc1S(=O)(=O)Nc1cccc(OC(F)(F)F)c1 (some centres unmarked) [Example 1.185]
14 | 200 to 750 nM | CCOc1cc(NC(=O)C2CC=CCC2)ccc1S(=O)(=O)Nc1cccc(OC(F)(F)F)c1 (centres unmarked) [Example 1.480]
15 | 2000 to 20000 nM | COc1cc(NC(=O)c2ccnn2C)ccc1S(=O)(=O)Nc1cccc(C#N)c1 [Example 1.331]
16 | 750 to 2000 nM | CCOc1cc(NC(=O)[C@@H](O)C(C)C)ccc1S(=O)(=O)Nc1ccc2c(c1)OC(F)(F)O2 [Example 1.340]
17 | 200 to 750 nM | CCOc1cc(NC(=O)[C@@H](CO)C(C)C)ccc1S(=O)(=O)Nc1ccc(C(F)(F)F)cc1 [Example 1.558]
18 | 200 to 750 nM | Cc1cc(NC(=O)c2cncs2)ccc1S(=O)(=O)Nc1cccc(C(F)(F)F)c1 [Example 1.501]
19 | ≤ 200 nM | CCc1cc(NC(=O)C2CCOCC2)ccc1S(=O)(=O)Nc1cccc(OC(F)(F)F)c1 [Example 1.056]
20 | ≤ 200 nM | CCOc1cc(NC(=O)[C@@H](O)C(C)C)ccc1S(=O)(=O)Nc1cccc(C2CC2)c1 [Example 1.308]
21 | ≤ 200 nM | CCOc1cc(NC(=O)C(C(C)C)C(C)O)ccc1S(=O)(=O)Nc1cccc(OC(F)(F)F)c1 (centres unmarked) [Example 1.133]
22 | ≤ 200 nM | CCOc1cc(NC(=O)C(CO)c2ccccc2)ccc1S(=O)(=O)Nc1cccc(OC(F)(F)F)c1 (centres unmarked) [Example 1.473]
23 | 750 to 2000 nM | COc1cc(NC(=O)C2CC3C=CC2O3)ccc1S(=O)(=O)Nc1cccc(OC(F)(F)F)c1 (centres unmarked) [Example 1.370]
24 | 200 to 750 nM | CCOc1cc(NC(=O)[C@@H](O)C(C)C)ccc1S(=O)(=O)Nc1ccc(C(F)(F)F)cc1 [Example 1.244]
25 | 750 to 2000 nM | CCc1cc(C(=O)Nc2ccc(S(=O)(=O)Nc3cccc(C(F)(F)F)c3)c(OC)c2)n(C)n1 [Example 1.027]
26 | 750 to 2000 nM | CCOc1cc(NC(=O)[C@@H](O)C(C)C)ccc1S(=O)(=O)Nc1cccc(OC)c1C [Example 1.290]
27 | ≤ 200 nM | CCOc1cc(NC(=O)[C@@H](CO)C2CC2)ccc1S(=O)(=O)Nc1cccc(C(F)(F)F)c1 [Example 1.494]

Row | IC50 | Structure (SMILES)
28 | 750 to 2000 nM | Cc1cc(NC(=O)c2ccc(Cl)cc2)ccc1S(=O)(=O)Nc1cccc(C(F)(F)F)c1 [Example 1.407]
29 | 2000 to 20000 nM | CCOc1cc(NC(=O)[C@@H](NS(C)(=O)=O)C(C)CC)ccc1S(=O)(=O)Nc1cccc(OC(F)(F)F)c1 (some centres unmarked) [Example 1.367]
30 | 750 to 2000 nM | COc1cccc(NS(=O)(=O)c2ccc(NC(=O)c3ccnn3C)cc2OC)c1 [Example 1.348]
31 | 200 to 750 nM | CCc1cc(NC(=O)c2ccns2)ccc1S(=O)(=O)Nc1cccc(C(F)(F)F)c1 [Example 1.225]
32 | 200 to 750 nM | CCOc1cc(NC(=O)[C@H]2CCC=C[C@H]2O)ccc1S(=O)(=O)Nc1cccc(OC(F)(F)F)c1 [Example 1.226]
33 | 2000 to 20000 nM | Cc1cc(NC(=O)c2cccc(C(F)(F)F)c2)ccc1S(=O)(=O)Nc1cccc(C(F)(F)F)c1 [Example 1.443]
34 | 200 to 750 nM | COc1cc(NC(=O)c2ccn(C)c(=O)c2)ccc1S(=O)(=O)Nc1cccc(OC(F)(F)F)c1 [Example 1.038]
35 | 750 to 2000 nM | CCOc1cc(NC(=O)C(O)c2cccnc2)ccc1S(=O)(=O)Nc1cccc(OC(F)(F)F)c1 (centres unmarked) [Example 1.493]
36 | ≤ 200 nM | CCOc1cc(NC(=O)[C@@H]2CCCCC[C@@H]2O)ccc1S(=O)(=O)Nc1cccc(OC(F)(F)F)c1 [Example 1.404]
37 | 200 to 750 nM | CCOc1cc(NC(=O)[C@@H](CO)C(C)C)ccc1S(=O)(=O)Nc1cccc(Cl)c1Cl [Example 1.054]
38 | 2000 to 20000 nM | Cn1nccc1C(=O)Nc1ccc(S(=O)(=O)Nc2cccc(C(F)(F)F)c2)c(C#N)c1 [Example 1.187]
39 | 2000 to 20000 nM | CCOc1cc(NC(=O)[C@@H](O)C(C)C)ccc1S(=O)(=O)Nc1cccc(OC(F)(F)F)c1C [Example 1.267]
40 | 200 to 750 nM | COc1cc(NC(=O)[C@@H](CO)c2ccccc2)ccc1S(=O)(=O)Nc1cccc(OC(F)(F)F)c1 [Example 1.235]
41 | 750 to 2000 nM | Cc1cc(NC(=O)C2CCCCC2)ccc1S(=O)(=O)Nc1cccc(C(F)(F)F)c1 [Example 1.575]
42 | 2000 to 20000 nM | CCOc1cc(NC(=O)[C@@H](O)C(C)C)ccc1S(=O)(=O)Nc1cccc(Cl)c1C(F)(F)F [Example 1.579]
43 | 750 to 2000 nM | COc1cc(NC(=O)C2CCOC2)ccc1S(=O)(=O)Nc1cccc(OC(F)(F)F)c1 (centres unmarked) [Example 1.042]
44 | ≤ 200 nM | CCOc1cc(NC(=O)[C@@H](NC(C)=O)C(C)C)ccc1S(=O)(=O)Nc1cccc(C(F)(F)F)c1 [Example 1.507]
45 | ≤ 200 nM | CCOc1cc(NC(=O)[C@@H](O)C2CCCC2)ccc1S(=O)(=O)Nc1cccc(OC(F)(F)F)c1 [Example 1.416]
46 | 200 to 750 nM | CCn1nccc1C(=O)Nc1ccc(S(=O)(=O)Nc2cccc(C(F)(F)F)c2)c(C)c1 [Example 1.519]
47 | ≤ 200 nM | CCCc1cc(NC(=O)[C@@H](CO)C2CC2)ccc1S(=O)(=O)Nc1cccc(OC(F)(F)F)c1 [Example 1.099]
48 | 2000 to 20000 nM | COc1cc(NC(=O)[C@@H]2CCC[C@H]2NC(=O)OC(C)(C)C)ccc1S(=O)(=O)Nc1cccc(C(F)(F)F)c1 [Example 1.426]
49 | 200 to 750 nM | CCOc1cc(NC(=O)[C@@H](CO)C(C)C)ccc1S(=O)(=O)Nc1cccc(Cl)c1C [Example 1.540]
50 | 2000 to 20000 nM | Cc1cc(NC(=O)c2cocn2)ccc1S(=O)(=O)Nc1cccc(C(F)(F)F)c1 [Example 1.301]
51 | 2000 to 20000 nM | CCOc1cc(NC(=O)[C@@H](CO)C(C)C)ccc1S(=O)(=O)Nc1ccc(CO)c(C(F)(F)F)c1 [Example 1.006]
52 | 200 to 750 nM | CCOc1cc(NC(=O)C(C)C(O)C2CCCOC2)ccc1S(=O)(=O)Nc1cccc(OC(F)(F)F)c1 (centres unmarked) [Example 1.435]
53 | ≤ 200 nM | CCOc1cc(NC(=O)C(CO)C2CCCCC2)ccc1S(=O)(=O)Nc1cccc(OC(F)(F)F)c1 (centres unmarked) [Example 1.113]
